# ChEMBL document CHEMBL4513139, “CO-ADD screening of University of Strathclyde (UK) compounds”
# Legend:
# HEK293 = test: cells; type: functional, Homo sapiens, ATCC CRL1573; conditions: Homo sapiens, ATCC CRL1573, HEK293; ASSAY_TEST Inhibition of Cell Viability; detection method Resazurin; Fluorescence (ex560/em590); MEDIA DMEM with 10% FBS; plate type 384well; TC; CORNING #3712; time 18 hr; read-out: CC50
# Staphylococcus aureus = test: microbe, parasite or virus in culture; conditions: ATCC 43300, 18 h, ASSAY_TEST Inhibition of Bacterial Growth, detection method Absorption (OD600), MEDIA CAMHB, plate type 384well, NBS, CORNING #3640
# Description: Antibacterial activity against Staphylococcus aureus MRSA ATCC 43300 (CO-ADD:GP_020); MIC in CAMBH media, using NBS plates, by OD(600)
# Escherichia coli = test: microbe, parasite or virus in culture; conditions: ATCC 25922, 18 h, ASSAY_TEST Inhibition of Bacterial Growth, detection method Absorption (OD600), MEDIA CAMHB, plate type 384well, NBS, CORNING #3640
# Description: Antibacterial activity against Escherichia coli ATCC 25922 (CO-ADD:GN_001); MIC in CAMBH media using NBS plates, by OD(600)
# Klebsiella pneumoniae = test: microbe, parasite or virus in culture; conditions: ATCC 700603, 18 h, ASSAY_TEST Inhibition of Bacterial Growth, detection method Absorption (OD600), MEDIA CAMHB, plate type 384well, NBS, CORNING #3640
# Description: Antibacterial activity against Klebsiella pneumoniae MDR ATCC 70063 (CO-ADD:GN_003); MIC in CAMBH media using NBS plates, by OD(600)
# Pseudomonas aeruginosa = test: microbe, parasite or virus in culture; conditions: ATCC 27853, 18 h, ASSAY_TEST Inhibition of Bacterial Growth, detection method Absorption (OD600), MEDIA CAMHB, plate type 384well, NBS, CORNING #3640
# Description: Antibacterial activity against Pseudomonas aeruginosa ATCC 27853 (CO-ADD:GN_042); MIC in CAMBH media using NBS plates, by OD(600)
# Acinetobacter baumannii = test: microbe, parasite or virus in culture; conditions: ATCC 19606, 18 h, ASSAY_TEST Inhibition of Bacterial Growth, detection method Absorption (OD600), MEDIA CAMHB, plate type 384well, NBS, CORNING #3640
# Description: Antibacterial activity against Acinetobacter baumannii ATCC 19606 (CO-ADD:GN_034); MIC in CAMBH media using NBS plates, by OD600
# Candida albicans = test: microbe, parasite or virus in culture; conditions: ATCC 90028, ASSAY_TEST Inhibition of Fungal Growth, detection method Absorption (OD530), plate type 384well, NBS, CORNING #3640
# Description: Antifungal activity against Candida albicans ATCC 90028 (CO-ADD:FG_001); MIC in YNB media using NBS plates, by OD630
# Description for Cryptococcus neoformans: Antifungal activity against Cryptococcus neoformans H99 ATCC 208821 (CO-ADD:FG_002); MIC in YNB media using NBS plates, by Resazurin OD(600-570)
Structure (SMILES),CC50 (HEK293),MIC (Cryptococcus neoformans),MIC (Staphylococcus aureus),MIC (Escherichia coli),MIC (Klebsiella pneumoniae),MIC (Pseudomonas aeruginosa),MIC (Acinetobacter baumannii),MIC (Candida albicans)
COc1cccc(C(=N)Nc2cc(C(=O)Nc3cc(C(=O)Nc4nc(C(=O)NCCCN(C)C)c(CCC(C)C)s4)n(C)c3)n(C)c2)c1.O=C(O)C(F)(F)F.O=C(O)C(F)(F)F,> 32 µg/mL,2 µg/mL,2 µg/mL,32 µg/mL,> 32 µg/mL,> 32 µg/mL,> 32 µg/mL,> 32 µg/mL
CC(C)CCc1sc(NC(=O)c2cc(NC(=O)c3cc4ccccc4cn3)cn2C)nc1C(=O)NCCCN(C)C.O=C(O)C(F)(F)F,2.17 µg/mL,> 32 µg/mL,> 32 µg/mL,> 32 µg/mL,> 32 µg/mL,> 32 µg/mL,> 32 µg/mL,> 32 µg/mL
CC(=N)Nc1cc(C(=O)Nc2cc(C(=O)Nc3cc(C(=O)NCCCN(C)C)n(C)c3)n(C)c2)n(C)c1.O=C(O)C(F)(F)F.O=C(O)C(F)(F)F,> 32 µg/mL,> 32 µg/mL,> 32 µg/mL,> 32 µg/mL,> 32 µg/mL,> 32 µg/mL,> 32 µg/mL,> 32 µg/mL
COCCOC1CCN(CCNC(=O)c2cc(NC(=O)c3cc(NC(=O)c4ccc(/C=C/c5ccc(OC)cc5)cc4)cn3C)cn2C)CC1.O=S(=O)(O)O,1.57 µg/mL,> 32 µg/mL,16 µg/mL,> 32 µg/mL,> 32 µg/mL,> 32 µg/mL,> 32 µg/mL,> 32 µg/mL
Cn1cc(NC(=O)c2ccc(/C=C/c3ccncc3)cc2)cc1C(=O)Nc1cc(C(=O)NCCN2CCOCC2)n(CCCSc2ccccc2)c1.O=C(O)C(F)(F)F.O=C(O)C(F)(F)F,> 32 µg/mL,> 32 µg/mL,> 32 µg/mL,> 32 µg/mL,> 32 µg/mL,> 32 µg/mL,> 32 µg/mL,> 32 µg/mL
COCCOC1CCN(CCNC(=O)c2cc(NC(=O)c3cc(NC(=O)c4ccc(/C=C/c5ccc(OC)cc5)nc4)cn3C)cn2C)CC1,3 µg/mL,> 32 µg/mL,2 µg/mL,> 32 µg/mL,> 32 µg/mL,> 32 µg/mL,> 32 µg/mL,> 32 µg/mL
Cn1cc(NC(=O)c2ccc(/C=C/c3cnc4ccccc4c3)cc2)cc1C(=O)NCCN1CCOCC1.O=C(O)C(F)(F)F.O=C(O)C(F)(F)F,2.42 µg/mL,32 µg/mL,2 µg/mL,> 32 µg/mL,> 32 µg/mL,> 32 µg/mL,> 32 µg/mL,> 32 µg/mL
CC(C)CCc1sc(NC(=O)c2cc(NC(=O)c3cc(NC(=N)c4cnc5ccccc5c4)cn3C)cn2C)nc1C(=O)NCCCN(C)C.O=C(O)C(F)(F)F.O=C(O)C(F)(F)F,1.18 µg/mL,≤ 0.25 µg/mL,1 µg/mL,> 32 µg/mL,> 32 µg/mL,> 32 µg/mL,> 32 µg/mL,> 32 µg/mL
COc1cccc(/C=C/c2ccc(C(=O)Nc3cc(C(=O)Nc4cc(C(=O)NCCCN(C)C)n(C)c4)n(C)c3)cc2)c1.O=C(O)C(F)(F)F,11.4 µg/mL,> 32 µg/mL,> 32 µg/mL,> 32 µg/mL,> 32 µg/mL,> 32 µg/mL,> 32 µg/mL,> 32 µg/mL
COc1cccc(/C=C/c2ccc(C(=O)Nc3cc(C(=O)Nc4cc(C(=O)NCCN5CCC(O)CC5)n(C)c4)n(C)c3)cc2)c1.O=C(O)C(F)(F)F,11.7 µg/mL,> 32 µg/mL,16 µg/mL,> 32 µg/mL,> 32 µg/mL,> 32 µg/mL,> 32 µg/mL,> 32 µg/mL
CC(C)c1sc(NC(=O)c2cc(NC(=O)c3cc(NC(=O)c4cc(NC=O)cn4C)cn3C)cn2C)nc1C(=O)NCCCN(C)C.O=C(O)C(F)(F)F,> 32 µg/mL,> 32 µg/mL,16 µg/mL,> 32 µg/mL,> 32 µg/mL,> 32 µg/mL,> 32 µg/mL,> 32 µg/mL
COc1cccc(C(=N)Nc2cc(C(=O)Nc3nc(C(=O)NCCN4CCOCC4)c(CCc4ccccc4)s3)n(C)c2)c1.O=C(O)C(F)(F)F.O=C(O)C(F)(F)F,2.59 µg/mL,16 µg/mL,32 µg/mL,> 32 µg/mL,> 32 µg/mL,> 32 µg/mL,> 32 µg/mL,> 32 µg/mL
CN(C)CCNC(=O)c1cc(NC(=O)c2cc(NC(=O)c3ccc(/C=C/c4ccc(N(C)C)cc4)nc3)cn2C)cn1C.O=C(O)C(F)(F)F.O=C(O)C(F)(F)F,1.13 µg/mL,2 µg/mL,2 µg/mL,> 32 µg/mL,> 32 µg/mL,> 32 µg/mL,> 32 µg/mL,4 µg/mL
COc1ccc(C(=N)Nc2cc(C(=O)Nc3nc(C(=O)NCCN4CCOCC4)c(CCc4ccccc4)s3)n(C)c2)cc1,7.47 µg/mL,1 µg/mL,16 µg/mL,> 32 µg/mL,> 32 µg/mL,> 32 µg/mL,> 32 µg/mL,> 32 µg/mL
Cn1cc(NC(=O)c2ccc(/C=C/c3ccncc3)cc2)cc1C(=O)Nc1cc(C(=O)NCCN2CCOCC2)n(CCCN2CCN(Cc3cccc4ccccc34)CC2)c1.O=C(O)C(F)(F)F.O=C(O)C(F)(F)F.O=C(O)C(F)(F)F.O=C(O)C(F)(F)F,2.03 µg/mL,2 µg/mL,> 32 µg/mL,> 32 µg/mL,> 32 µg/mL,> 32 µg/mL,> 32 µg/mL,32 µg/mL
CC(=O)Nc1cc(C(=O)Nc2cc(C(=O)NCCC(=N)N)n(C)c2)n(C)c1.O=C(O)C(F)(F)F,> 32 µg/mL,> 32 µg/mL,> 32 µg/mL,> 32 µg/mL,> 32 µg/mL,> 32 µg/mL,> 32 µg/mL,> 32 µg/mL
COc1cccc(/C=C/c2ccc(C(=O)Nc3cc(C(=O)Nc4cc(C(=O)NCCN5CCCCC5)n(CCCc5ccccc5)c4)n(C)c3)cc2)c1.O=C(O)C(F)(F)F,16 µg/mL,> 32 µg/mL,> 32 µg/mL,> 32 µg/mL,> 32 µg/mL,> 32 µg/mL,> 32 µg/mL,> 32 µg/mL
Cn1cc(NC(=O)c2ccc(/C=C/c3cnc4ccccc4c3)cc2)cc1C(=O)Nc1cc(C(=O)NCCN2CCOCC2)n(CCCc2cn(CCc3ccccc3)nn2)c1.O=C(O)C(F)(F)F,> 32 µg/mL,16 µg/mL,> 32 µg/mL,> 32 µg/mL,> 32 µg/mL,> 32 µg/mL,> 32 µg/mL,> 32 µg/mL
COc1ccc(/C=C/c2ccc(C(=O)Nc3cc(C(=O)Nc4cc(C(=O)NCCN5CCCCC5)n(CCCc5ccccc5)c4)n(C)c3)cn2)cc1.O=C(O)C(F)(F)F.O=C(O)C(F)(F)F,> 32 µg/mL,16 µg/mL,> 32 µg/mL,> 32 µg/mL,> 32 µg/mL,> 32 µg/mL,> 32 µg/mL,> 32 µg/mL
COc1ccc(/C=C/c2ccc(C(=O)Nc3cc(C(=O)Nc4cc(C(=O)NCCN5CCOCC5)n(CCCc5cn(CCc6ccccc6)nn5)c4)n(C)c3)cn2)cc1,> 32 µg/mL,> 32 µg/mL,> 32 µg/mL,> 32 µg/mL,> 32 µg/mL,> 32 µg/mL,> 32 µg/mL,> 32 µg/mL
Cn1cc(NC(=O)c2ccc(/C=C/c3cnc4ccccc4c3)cc2)cc1C(=O)Nc1cc(C(=O)NCCN2CCOCC2)n(CCCN=[N+]=[N-])c1.O=C(O)C(F)(F)F.O=C(O)C(F)(F)F,4.48 µg/mL,16 µg/mL,2 µg/mL,> 32 µg/mL,> 32 µg/mL,> 32 µg/mL,> 32 µg/mL,> 32 µg/mL
